Data taken from patent US20070077283A1, “METHOD OF ENHANCING TRANSMUCOSAL DELIVERY OF THERAPEUTIC COMPOUNDS” (Nastech Pharmaceutical Company Inc., priority 2005, published 2007).

Key:
[1] = test system: ciliary function in epithelial cell cultures; details: Hingley et al. 1986; cited from earlier work
[2] = test system: human-derived tracheal/bronchial epithelial cells (EpiAirway Tissue Model); experiment: Transepithelial electrical resistance (TER) of an epithelial cell monolayer; assay type: cell-based
Description: Inserts are feed for each day of recovery. TER measurements were accomplished using the Endohm-12 Tissue Resistance Measurement Chamber connected to the EVOM Epithelial Voltohmmeter (World Precision Instruments, Sarasota, Fla.) with the electrode leads. The electrodes and a tissue culture blank insert were equilibrated for at least 20 minutes in MatTek medium with the power off prior to checking calibration. The background resistance was measured with 1.5 ml media in the Endohm tissue chamber and 300 μl media in the blank insert. The top electrode was adjusted so that it was close to, but not making contact with, the top surface of the insert membrane. Background resistance of the blank insert was about 5-20 ohms. […] TER values are a function of the surface area of the tissue. […] By this method of calculation, TER will be expressed as both Ohms*cm2 and percent original TER value. […] Several different lipid types (see Table 1) were screened to select for lipids that are capable of enhancing the permeation of a biological agent across an epithelial cell monolayer. […] A reduction in TER correlates with the ability to enhance the permeation of a molecule and biological agent across an epithelia.

[3] = test system: human-derived tracheal/bronchial epithelial cells (EpiAirway Tissue Model); experiment: in vitro
Description: Normal, human-derived tracheal/bronchial epithelial cells will serve as the model cell system for assessing the lipids listed in Table 1. The cells are supplied by MatTek Corp. (Ashland, Mass.) as the EpiAirway™ Tissue Model. The cells are provided as a confluent monolayer on a Millipore Milicell-CM cell culture insert with a pore size of 0.4 μM, inner diameter of 0.8 cm and surface area of 0.6 cm^2 and comprised of transparent hydrophilic Teflon (PTFE). Upon receipt, the membranes are cultured in 1 ml basal media (phenol red-free and hydrocortisone-free Dulbecco's Modified Eagle's Media (DMEM) at 37° C./5% CO2 for 24-48 hours before use. Inserts are feed for each day of recovery.
The amount of cell death was assayed by measuring the loss of lactate dehydrogenase (LDH) from the cells using a CytoTox 96 Cytotoxicity Assay Kit (Promega Corp., Madison, Wis.). A treatment of 1% Octylphenolpoly(ethyleneglycolether)x (Triton X-100™) diluted in PBS was used as a lysis control. One percent Triton X-100™ mediated cell lysis was normalized to 100%. For basal-lateral LDH levels, triplicates of 50 μl of the basal media were loaded into a 96-well assay plate. For apical LDH levels, 150 μl of Epi-Cm was added to the apical side of each chamber and mixed by pipeting. One hundred and fifty microliters was then removed and diluted 2-fold prior to performing the LDH assay. All apical LDH assay were performed in triplicate and with 50 μl of the diluted test solution. Fresh, cell-free culture medium will be used as a blank. Total LDH levels were determined by lysing cells in a final concentration of 0.9% Triton-X100™. Fifty microliters of substrate solution was added to each well and the plates incubated for 30 minutes at room temperature in the dark. Following incubation, 50 μl of stop solution was added to each well and the plates read on an optical density plate reader at […]. Cytotoxicity was expressed as a percentage calculated by subtracting the average absorbance of the PBS control wells as the endogenously released LDH level and expressing that value relative to the average Triton-X100 control, which represents total LDH content. [formula] Osmolality
For the instant application, phosphate buffered saline (PBS) served as a negative control for both the TER assay and LDH (cytotoxicity) assay. […] TER measurements and LDH levels were taken immediately after a one hour treatment of the cultured cells with each lipid, unless specified otherwrise.
TER reduction was expressed as the percent decrease in TER value from time zero to one hour post-treatment. Thus, greater percent reduction in TER represents less electrical resistance across the epithelial cell monolayer and consequently greater epithelial cell permeation. Cytotoxicity (LDH levels) for each lipid was expressed as a percent of the LDH levels measured after Triton-X100 treatment of the cells. Triton-X100™ LDH levels were normalized to 100%.

[4] = test system: human-derived tracheal/bronchial epithelial cells (EpiAirway Tissue Model); experiment: FITC-Dextran permeation assay across epithelial cell monolayer; assay type: cell-based; details: for Mean % FD3 Permeation: FITC-dextran 3000 (Table 4); for permeation of FD3 relative to negative controls: text summary of Table 4
Description: Each tissue insert was placed in an individual well containing 1 ml of MatTek basal media. On the apical surface of the inserts, 20 μl of test formulation was applied according to study design, and the samples were placed on a shaker (˜100 rpm) for 1.5 hours at 37° C. FITC-labeled dextran solution was added to inserts apically and a fluorescence measurement was taken from the basolateral media after the incubation period. Two hundred microliters of the basal media for each test formulation was transferred to a dark-wall fluorescent reading plate. Each test formulation was tested in triplicate. Fluorescent intensity was measured at 470 nM with the microplate fluorescence reader FLx800 (Bio-Tek Instruments, Inc., Winooski, Vt.). A FITC labeled dextran with a molecular weight of 3 kDA, 10 kDA, 20 kDA, 40 kDA, 70 kDA and/or 500 kDA was used to assess the ability of individual lipids to deliver a model protein across an epithelia.
(§1) Permeation is expressed as percent permeation and was calculated as follows: [formula] [formula] Terms
PBS and 0.3% Triton-X100™ served as […]. […] FD permeation was presented as the percent of FD that crossed from the apical side of the epithelial cell monolayer to the basolateral cell surface.

[5] = test system: human-derived tracheal/bronchial epithelial cells (EpiAirway Tissue Model); experiment: Cell viability (MTT assay); assay type: cell-based; details: for MTT levels (cell viability): compared with PBS negative control (Example 5)
Description: Cell viability will be assessed using the MTT assay (MTT-100, MatTek kit). This kit measures the uptake and transformation of tetrazolium salt to formazan dye. Thawed and diluted MTT concentrate is prepared 1 hour prior to the end of the dosing period with the lipid by mixing 2 mL of MTT concentrate with 8 mL of MTT diluent. Each cell culture insert is washed twice with PBS containing Ca^+2 and Mg^+2 and then transferred to a new 96-well transport plate containing 100 μL of the mixed MTT solution per well. This 96-well transport plate is then incubated for three hours at 37° C. and 5% CO2. After the three hour incubation, the MTT solution is removed and the cultures are transferred to a second 96-well feeder tray containing 250 μL MTT extractant solution per well. An additional 150 μL of MTT extractan solution was added to the surface of each culture well and the samples sat at room temperature in the dark for a minimum of two hours and maximum of 24 hours. The insert membrane was then pierced with a pipet tip and the solutions in the upper and lower wells were allowed to mix. Two hundred microliters of the mixed extracted solution along with extracted blanks (negative control) was transferred to a 96-well plate for measurement with a microplate reader. The optical density (OD) of the samples was measured at 570 nm with the background subtraction at 650 nm on a plate reader. Cell viability was expressed as a percentage and calculated by dividing the OD readings for treated inserts by the OD readings for the PBS treated inserts and multiplying by 100. For the purposes of this assay, it was assumed that PBS had no effect on cell viability and therefore represented 100% cell viability.

[6] = test system: human-derived tracheal/bronchial epithelial cells (EpiAirway Tissue Model); experiment: TER recovery / TER time course; assay type: cell-based; details: lipids 500 μM, PN159 25 μM
Description: TER recovery was calculated as described in the above paragraph.
Reversibility is a critical factor in selecting epithelial cell permeabiling enhancers since the barrier function of the epithelial cells serves as the first line of defense against pathogens and the entrance of toxins into the body. The permeation enhancing lipids C16 PAF; C18 PAF; C16 Enantiomeric PAF; POVPC; C16-04: 1 PC and PGPC were incubated with a monolayer of human-derived tracheal/bronchial epithelial cells (EpiAirway™ Model System) and TER […] The lipid glucosyl sphingosine was also tested. Each permeation enhancing lipid (except PGPC) was applied at a concentration of 1000 μM for 15, 30 and 60 minutes. The permeation enhancing lipid PGPC and the lipid glucosyl sphingosine were applied at a concentration of 500 μM for 1, 3, 5, 30 and 60 minutes. TER measurements were taken immediately after each application to determine how quickly each lipid could reduce TER.
[…] […] PBS served as a negative control and Triton-X100™ served as a positive control.
To asses how quickly the cells recovered after application and removal of the permeation enhancing lipid PGPC and the lipid glucosyl sphingosine, TER measurements were taken at 1, 3, 5, 7, and 9 hours post-treamtnet for each of the prior mentioned timed treatments (i.e., 1, 3, 5, 15, 30 and 60 minutes). TER recovery measures the reversibility of the lipid mediated effect on an epithelia. […] Hyptonic PBS served as a negative control for TER reduction and TER recovery.

[7] = test system: human-derived tracheal/bronchial epithelial cells (EpiAirway Tissue Model); experiment: Peptide YY (PYY) permeation across epithelial cell monolayer; assay type: cell-based
Description: as §1
In the instant example, the ability of permeation enhancing lipids to enhance the permeation of the biological agent, peptide YY (PYY; molecular weight of 3.7 kDa) across the epithelial cell monolayer model system (EpiAirway™) was measured. Also, the efficacy of a permeation enhancing lipid to enhance the permeation of insulin across and epithelial cell layer was measured. Refer to Example 2 of the instant application for general protocol details.

[8] = lipid 500 μM / PYY 13.67 mg/mL (High)
[9] = lipid / PYY 10 mg/mL, listed as PAF-antangonist

## 2-alkyl-4-hydroxyquinolines [pyo compound]
[1]
  concentration producing ciliostasis / inhibiting ciliary motility: 50 µg/mL

## CCCCCCCCCCCCCCCCOC[C@H](COP(=O)([O-])OCC[N+](C)(C)C)OC(=O)CCCCCCCC(=O)O [Azelaoyl PAF (C16-09:0), 1-O-Hexadecyl-2-Azelaoyl-sn-Glycero-3-Phosphocholine]
[2]; Homo sapiens, Epithelial cell, 1 h, lipid 1000 μM, lower value = greater TER reduction (Table 4), read-out: Mean % of Original TER Value
  activity at 1000 µM: -5%
[2]; lipid 62.5 μM
  Mean TER Reduction 1 hr. Post-treatment: 41%
[2]; lipid 125 μM
  Mean TER Reduction 1 hr. Post-treatment: 76%
[2]; lipid 250 μM
  Mean TER Reduction 1 hr. Post-treatment: 93%
[2]; lipid 500 μM
  Mean TER Reduction 1 hr. Post-treatment: 93%
[2]; lipid 1000 μM, percent decrease in TER from time zero
  Mean TER Reduction 1 hr. Post-treatment: 95%
[3]; human, 1 h
  LDH levels: below 30%
[3]; human, 1 h, 62.5 μM
  Cytotoxic Effect (LDH) 1 hr. Post-treatments: 2%
[3]; human, 1 h, 125 μM
  Cytotoxic Effect (LDH) 1 hr. Post-treatments: 5%
[3]; human, 1 h, 250 μM
  Cytotoxic Effect (LDH) 1 hr. Post-treatments: 10%
[3]; human, 1 h, 500 μM
  Cytotoxic Effect (LDH) 1 hr. Post-treatments: 16%
[3]; human, 1 h, 1000 μM
  Cytotoxic Effect (LDH) 1 hr. Post-treatments: 26%
  Mean % Relative Cytotoxic Effect (LDH): 3%
[4]; lipid 250 μM (Table 5)
  % FITC-Dextran Permeation FD3: 1%
[4]; lipid 1000 μM
  Mean % FD3 Permeation: 9%
[4]
  permeation of FD3 relative to negative controls: enhanced the permeation of FD3 above that of the negative controls
[5]
  MTT levels (cell viability): MTT levels comparable to that of the PBS negative control

## CCCCCCCCCCCCC/C=C/[C@@H](O)[C@@H](N)CO[C@@H]1O[C@H](CO)[C@@H](O)[C@H](O)[C@H]1O [Glucosyl-sphingosine, D-Glucosyl-β1-1′-D-erythro-Sphingosine]
[2]; lipid 500 μM / PYY 13.67 mg/mL (High), listed as Glucosyl Sphingosine
  % Original TER: 12%
[2]; lipid 500 μM / PYY 13.67 mg/mL (High), listed as glucosyl sphingosine
  % Original TER: reduced TER to levels equivalent of PN159
[4]; lipid 500 μM (Table 5)
  % FITC-Dextran Permeation FD3: 4%
[5]
  MTT levels (cell viability): MTT levels comparable to that of the PBS negative control
[5]; [8]
  % Cell Viability: 109%
[6]; after 1, 3, 5, 15 and 30 minute treatments
  time to full TER recovery (PBS control levels): fully recovered within one hour
[6]; after 60 minute treatment
  time to full TER recovery (PBS control levels): did not reach PBS TER control levels until three hours post-treatment
[7]; [8]
  % PYY Permeation: 1.17%

## CCCCCCCCCCCCCCCCOC[C@H](COP(=O)([O-])OCCCCCC[N+](C)(C)C)OC(C)=O [PAF-antagonist, 1-O-Hexadecyl-2-O-Acetyl-sn-Glycero-3-Phospho(N,N,N-trimethyl) Hexanolamine]
[2]; lipid 500 μM (Table 4)
  Mean % of Original TER Value: 20%
[2]; lipid 1000 μM, lower value = greater TER reduction (Table 4)
  Mean % of Original TER Value: 9%
[2]; lipid / PYY 10 mg/mL
  % Original TER: reduced TER below that of the positive control PN159 and equivalent to the positive control Special Sauce
[2]; [9]
  % Original TER: 2%
[3]; lipid 500 μM (Table 4)
  Mean % Relative Cytotoxic Effect (LDH): 8%
[3]; lipid 1000 μM (Table 4)
  Mean % Relative Cytotoxic Effect (LDH): 10%
[4]; lipid 500 μM
  Mean % FD3 Permeation: 6%
[4]; lipid 1000 μM
  % FITC-Dextran Permeation FD10: 5%
  % FITC-Dextran Permeation FD40: 2%
  Mean % FD3 Permeation: 11%
[4]; lipid 1000 μM (Table 5)
  % FITC-Dextran Permeation FD3: 11%
[4]
  permeation of FD3 relative to negative controls: enhanced the permeation of FD3 above that of the negative controls
[7]; lipid / PYY 10 mg/mL
  % PYY Permeation: enhanced permeation of PYY equivalent to or above the positive control PN159
[7]; [9]
  % PYY Permeation: 2.4%
